Reference: publication PMC5490157 (DARU Journal of Pharmaceutical Sciences, 2017)
Several values for one entry are separate records, joined by “and”; a condition that tells them apart may be missing. Equal entries are not always repeated. Marks after values point to notes of the source that are not given here.

Experiments:
[1] = Isolated perfused rat liver, single-pass perfusion with MRZ-containing Krebs-Henselit buffer, control vs MDMA-pretreated rats; perfusate analysed by HPLC; details: for Mean outlet perfusate concentration at four latest samples / Metabolic ratio (metabolite concentration divided by MRZ concentration) at four latest sampling time intervals: mean ± SD; for Decrease in metabolite concentration, treatment vs control: four latest samples; for Decrease in metabolic ratio, treatment vs control: four latest sampling time intervals; for CLh (hepatic clearance) / CLint (intrinsic clearance): ±SD; for AUC(0-t) at 1 μg/ml: rat, isolated perfused rat liver (single-pass)
CYP2D6 [2] = system: CYP2D6; parameters: method as in PMID 16714321; details: irreversible inhibition of CYP2D6; cited from earlier work
CYP2D6 [3] = assay: Effect of MDMA on CYP2D6-mediated MRZ metabolism (8-OH formation) in isolated perfused rat liver; details: MDMA 3 mg/kg IP 1 hour before MRZ perfusion; inferred from 8-OH formation
CYP3A4 = assay: Effect of MDMA on CYP3A4-mediated MRZ metabolism (NDES formation) in isolated perfused rat liver; details: MDMA 3 mg/kg IP 1 hour before MRZ perfusion; inferred from NDES formation
[4] = MDMA 3 mg/kg IP 1 hour before MRZ
[5] = control group (n = 6), MRZ inlet 1 μg/ml
[6] = control group, individual rats 1-6, metabolite formed from MRZ 1 μg/ml
[7] = treatment group (MDMA 3 mg/kg IP 1 hour before), individual rats 1-6
[8] = treatment group (MDMA 3 mg/kg IP 1 hour before), mean (n = 6)
[9] = treatment group (n = 6), MDMA 3 mg/kg IP 1 hour before MRZ 1 μg/ml
[10] = treatment group (n = 6), MDMA 3 mg/kg IP 1 hour before

CN1CCN2c3ncc(O)cc3Cc3ccccc3C2C1 (stereo not drawn) [8-OH, 8-hydroxymirtazapine]
Decrease in AUC (0–120) of metabolite, treatment vs control [1, 4]: 70% | Mean outlet perfusate concentration at four latest samples [1, 5]: 10.3 ± 3.2 ng/mL | Metabolic ratio (metabolite concentration divided by MRZ concentration) at four latest sampling time intervals ([1]; control group (n = 6)): 0.1 ± 0.05 | AUC (0–120) 8-OH Control [1, 6]: 2124.9 ng·min/mL and 1398.9 ng·min/mL and 1960.2 ng·min/mL and 1674.1 ng·min/mL and 610.9 ng·min/mL and 588.2 ng·min/mL | AUC (0–120) 8-OH Control, MEAN ([1]; control group, mean (n = 6)): 1392.9 ng·min/mL | Decrease in metabolite concentration, treatment vs control [1, 4]: 50% | Decrease in metabolic ratio, treatment vs control [1, 4]: 83% | AUC (0–120) 8-OH Treatment [1, 7]: 287.5 ng·min/mL and 398.6 ng·min/mL and 449.2 ng·min/mL and 415.4 ng·min/mL and 371.3 ng·min/mL and 920.5 ng·min/mL | AUC (0–120) 8-OH Treatment, MEAN [1, 8]: 473.7* ng.min/ml | Mean outlet perfusate concentration at four latest samples [1, 9]: 4.7 ± 2.9 ng/mL | Metabolic ratio (metabolite concentration divided by MRZ concentration) at four latest sampling time intervals [1, 10]: 0.02 ± 0.008

CNC(C)Cc1ccc2c(c1)OCO2 (stereo not drawn) [MDMA, 3,4-methylenedioxymethamphetamine]
Time after MDMA administration at which mechanism-based inhibition of most CYP2D6 isoenzymes is demonstrated (CYP2D6 [2]): ≤ 1 h | Effect on CYP2D6 hepatic isoenzyme (CYP2D6 [3]): inhibitory effects | Effect on CYP3A4 hepatic isoenzyme (CYP3A4): inhibitory effects

CN1CCN2c3ncccc3Cc3ccccc3C2C1 (stereo not drawn) [MRZ, Mirtazapine, reference compound]
Decrease in CLint, treatment vs control [1, 4]: 60% | Increase in AUC (0–120) of parent drug, treatment vs control [1, 4]: 50% | Mean outlet perfusate concentration at four latest samples [1, 5]: 131.9 ± 56.9 ng/mL | CLh (hepatic clearance) ([1]; control group (n = 6), CLh=Q×E, Q 8.3 ml/min): 7.2 ± 0.5 mL/min and 7.21 ± 0.47 mL/min | CLint (intrinsic clearance) ([1]; control group (n = 6), CLint=E×Q/F): 63.4 ± 25.8 mL/min and 63.4 ± 25.81 mL/min | AUC (0–120) MRZ Control ([1]; control group, individual rats 1-6): 9928.7 ng.min/ml and 16,443.6 ng.min/ml and 10,611.4 ng.min/ml and 13,295.1 ng.min/ml and 19,497.1 ng.min/ml | AUC(0-t) at 1 μg/ml ([1]; AUC (0–120) MRZ Control, MEAN, control group, mean (n = 6)): 237 ng·h/mL | AUC(0-t) at 1 μg/ml ([1]; AUC (0–120) MRZ Control, control group, individual rats 1-6): 259 ng·h/mL | AUC(0-t) at 1 μg/ml ([1]; ip, 3 mg/kg, AUC (0–120) MRZ Treatment, MEAN, treatment group (MDMA 3 mg/kg IP 1 hour before), mean (n = 6)): 358 ng·h/mL | AUC(0-t) at 1 μg/ml ([1]; ip, 3 mg/kg, AUC (0–120) MRZ Treatment, treatment group (MDMA 3 mg/kg IP 1 hour before), individual rats 1-6): 401 ng·h/mL | AUC (0–120) MRZ Treatment [1, 7]: 18,031.1 ng.min/ml and 17,675.6 ng.min/ml and 23,553.7 ng.min/ml and 23,063.4 ng.min/ml and 22,680.5 ng.min/ml | Mean outlet perfusate concentration at four latest samples [1, 9]: 236.8 ± 44.7 ng/mL | CLh (hepatic clearance) [1, 10]: 6.3 ± 0.4 mL/min and 6.33 ± 0.37 mL/min | CLint (intrinsic clearance) [1, 10]: 27.7 ± 6.3 mL/min and 27.71 ± 6.26 mL/min

c1ccc2c(c1)Cc1cccnc1N1CCNCC21 (stereo not drawn) [NDES, N-desmethylmirtazapine]
Decrease in AUC (0–120) of metabolite, treatment vs control [1, 4]: 60% | Mean outlet perfusate concentration at four latest samples [1, 5]: 188.6 ± 63.44 ng/mL | Metabolic ratio (metabolite concentration divided by MRZ concentration) at four latest sampling time intervals ([1]; control group (n = 6)): 1.7 ± 0.8 | AUC (0–120) NDES Control [1, 6]: 28,525.2 ng.min/ml and 22,505.4 ng.min/ml and 15,171.6 ng.min/ml and 18,839.8 ng.min/ml and 11,195.2 ng.min/ml and 12,075.7 ng.min/ml | AUC (0–120) NDES Control, MEAN ([1]; control group, mean (n = 6)): 18,052.1 ng.min/ml | Decrease in metabolite concentration, treatment vs control [1, 4]: 50% | Decrease in metabolic ratio, treatment vs control [1, 4]: 79% | AUC (0–120) NDES Treatment [1, 7]: 593.7 ng.min/ml and 12,111.8 ng.min/ml and 15,346.2 ng.min/ml and 5860.1 ng.min/ml and 10,613.3 ng.min/ml and 3605.2 ng.min/ml | AUC (0–120) NDES Treatment, MEAN [1, 8]: 8021.7* ng.min/ml | Mean outlet perfusate concentration at four latest samples [1, 9]: 98.5 ± 64.3 ng/mL | Metabolic ratio (metabolite concentration divided by MRZ concentration) at four latest sampling time intervals [1, 10]: 0.45 ± 0.3
